Where two headings read alike, the source gives them in different places. Blank lines part the entries; values can stand above or below the compound they belong to.
What was measured:
[1] = tested on: HEK[STIM1] cells (STIM1 overexpression)
Protocol: (§1) To test whether the […] entry pathway constitutively activated by STIM1 overexpression is pharmacologically similar to endogenous SOCE, HEK[STIM1] cells are pre-incubated with increasing doses of 2-APB and STIM1-induced Ca^2+ entry is measured.

[2] = tested on: endogenous SOCE in HEK-Zeo control cells; details: read-out: IC50 of inhibition of calcium entry, thapsigargin-mediated store depletion, readdition of external calcium
Protocol: as §1

[3] = target: T1, CRAC current in olf186-F+Stim transfectants (Drosophila melanogaster, UniProt Q9U6B8); experiment: Whole-cell patch-clamp of Ca2+ current in olf186-F+Stim transfected S2 cells; format: cell-based
T1 construct: A cDNA clone, pAc5.1/olf186-F, encoding full-length Drosophila olf186-F-RB, was generated for transfection into S2 cells; expressed in transfected cells; host or cells: Drosophila S2 cells (transient, Nucleofector)
T1 sequence (Q9U6B8 1-351): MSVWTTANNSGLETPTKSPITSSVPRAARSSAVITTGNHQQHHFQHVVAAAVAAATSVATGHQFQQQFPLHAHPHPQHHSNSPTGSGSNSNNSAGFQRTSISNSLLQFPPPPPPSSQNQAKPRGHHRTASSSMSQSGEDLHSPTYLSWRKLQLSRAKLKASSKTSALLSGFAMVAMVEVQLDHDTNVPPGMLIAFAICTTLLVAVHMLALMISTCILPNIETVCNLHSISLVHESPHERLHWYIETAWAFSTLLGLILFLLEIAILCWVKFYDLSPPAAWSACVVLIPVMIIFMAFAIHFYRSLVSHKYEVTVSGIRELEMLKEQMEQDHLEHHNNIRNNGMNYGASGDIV
Protocol: Whole-Cell Recording. Patch-clamp experiments were performed at room temperature in the standard whole-cell recording configuration, using a holding potential of −10 mV. […] To calculate current densities, peak current amplitudes were divided by membrane capacitance for each cell.

[4] = target: T2, Orai1/STIM1 ICRAC channel (Homo sapiens, UniProt Q96D31); experiment: Patch clamp (PatchXpress) of calcium currents in cells stably transfected with STIM1 and Orai1; format: cell-based
T2 construct: expressed in transfected cells
T2 sequence (Q96D31 whole entry): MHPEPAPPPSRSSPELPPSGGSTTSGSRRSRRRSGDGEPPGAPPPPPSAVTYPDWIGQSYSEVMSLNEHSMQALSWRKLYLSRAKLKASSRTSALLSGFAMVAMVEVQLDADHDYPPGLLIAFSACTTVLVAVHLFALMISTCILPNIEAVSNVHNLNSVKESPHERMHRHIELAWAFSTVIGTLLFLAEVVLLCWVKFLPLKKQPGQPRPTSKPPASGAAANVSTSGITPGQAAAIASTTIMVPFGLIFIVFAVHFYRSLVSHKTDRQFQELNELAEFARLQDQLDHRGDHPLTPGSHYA
Excerpt: Isolated, stably transfected cells were monitored with patch clamp analysis (PatchExpress) to detect calcium currents with overexpressed, stably transfected STIM1 and Orai1 nucleic acids.

[5] = target: STIM1 and Orai1 in HEK293 cells (Homo sapiens, UniProt Q96D31); details: HEK293 cells coexpressing STIM1 and Orai1; cited from earlier work
Chain of STIM1 and Orai1 in HEK293 cells (Q96D31 whole entry): as above

Jurkat cells = details: cited from earlier work
colon cancer cells = details: cited from earlier work
STIM1/Orai1 CRAC channel = target: T3, STIM1/Orai1 CRAC channel (Homo sapiens, UniProt Q96D31); experiment: FLIPR assay of Orai1/STIM1-dependent Ca2+ entry in stably transfected STIM1/Orai1 cells; format: cell-based
T3 construct: expressed in transfected cells
T3 sequence (Q96D31 whole entry): as above
Protocol: Cells are plated at 30K cells/50 uL media/well in PDL-coated 384-well plate (Greiner Cell Coat; VWR cat#82051-358) 24 hours before experiment. 20 μM Fluo-4-AM (Invitrogen cat#F-14201) are prepared, resuspended with 10 μl F-127, 20% pluronic solution in DMSO (Invitrogen cat#P3000MP), and added to 2.3 mL culture medium. Cells are loaded with dye by adding 5 μl of the 20 μM Fluo-4-AM solution to each well of the 384-well plate that already contained 50 μL of culture medium. The plates are kept in dark, RT, for approximately 1 hour. HBSS/1% HEPES/0.2 g/L MgCl2 was prepared and cells transferred to a plate washer to remove dye-loading solution from cells. The cells are washed with HBSS/1% HEPES/0.2 g/L MgCl2, being careful not to dislodge the cells. The final volume of buffer left on the cells should equal 40 μL. The cell plate is transferred to FLIPR monitoring instrument (Molecular Devices, Sunnyvale, Calif.), and 10 μL compound is added and incubated for 30 minutes. Data points (1/sec) are acquired prior to the addition of CaCl2 to establish basal readings. 5 μL 11 mM CaCl2 (1.0 mM CaCl2 final) is added, and the fluorescence read every second for 1 minute, then every 10 seconds for 14 minutes. […]
RBL-2H3 cells plated in 384-well plates are loaded for 45 min with FLUO-4-AM (2 μM final concentration) in a Hanks-buffered salt solution. […] Fifteen minutes after addition of Tg, store-operated calcium entry is initiated by adding external Ca^2+ to a final concentration of 1.8 mM and the cells monitored for a further 10-15 minutes. Calcium levels are monitored throughout the assay using a FLIPR^384 (Molecular Devices fluorimetric imaging plate reader for high throughput screening).
The kinetic data from the FLIPR^384 are analyzed and stored in a relational database (ActivityBase; IDBS). Ten quantitative parameters are calculated that define various aspects of the store-operated calcium entry response. […]

Drosophila S2 cells = experiment: Single-cell ratiometric fura-2 [Ca2+]i imaging of S2 cells; format: cell-based; details: control cells, 1 μM ionomycin in zero-Ca2+ solution, average
Protocol: RNAi in Drosophila S2 Cells. RNAi experiments were adapted from the protocols described by Worby et al. Drosophila S2 cells (0.5×10^6) were seeded in T-25 flasks in 2 ml of complete S2 medium. The next day, medium was removed and replaced with 2 ml of serum-free S2 medium. Twenty micrograms of dsRNA was added, and cells were incubated at room temperature for 45 min with gentle rocking. Four milliliters of S2 medium was added, and cells were incubated for 5 days at 24° C. Cells then were harvested and either plated for single-cell Ca^2+ imaging and patch-clamp experiments or processed for RT-PCR analysis.
Single-Cell [Ca^2+]i imaging. Ratiometric [Ca^2+]i Imaging was performed as described in ref. 3, using solution recipes described in Table 3. Transfected cells were recognized by coexpressed enhanced GFP (EGFP), using filters to avoid contamination of Fura-2 fluorescence by bleedthrough of GFP fluorescence. Data were analyzed with METAFLUOR software (Universal Imaging, Downington, Pa.) and ORIGINPRO 7.5 software (OriginLab, Northampton, Mass.) and are expressed as means ±SEM.
Effects of olf186-F Knockdown and Overexpression on Ca^2+ Influx and CRAC Currents in Single Cells. […]

Compound: NCCOB(c1ccccc1)c1ccccc1 [2-APB, 2-aminoethoxydiphenyl borate]
calcium entry at lower concentrations ([1]; absence of store depletion, lower concentrations): potentiated
IC50 ([1]; read-out: IC50 of inhibition of calcium entry, thapsigargin-mediated store depletion, readdition of external calcium): 10.5 µM
IC50 ([1]; read-out: IC50 of inhibition of constitutive calcium entry, absence of store depletion): 10.8 µM
IC50 [2]: 11.8 µM
effect on enhanced Ca2+ currents ([3]; 5 μM): potentiation of current before blocking
effect on enhanced Ca2+ currents ([3]; 20 μM): blocked
effect on CRAC channel currents (FIG. 8) [4]: potentiation
store-operated Ca2+ entry [5]: completely blocked

Compound: Cc1nnsc1C(=O)Nc1ccc(-n2nc(C(F)(F)F)cc2C(F)(F)F)cc1 [BTP-2]
SOCE (Jurkat cells): inhibits
proliferation (Jurkat cells): inhibits
SOCE (colon cancer cells): inhibits
proliferation (colon cancer cells): inhibits

Compound: C[C@H](CCC(=O)O)C[C@H](C)C[C@H](C)C(=O)/C=C(\O)[C@H](C)C[C@H](C)C/C=C/[C@@H](C)[C@@H](O)[C@@H](C)[C@@H](O)C[C@@H]1CC[C@@](C)([C@H]2CC[C@@](C)([C@@H](C)O)O2)O1 [ionomycin]
peak of Ca2+ release transient (Drosophila S2 cells): 200 nM

Continued, values first:

CRAC-channel mediated Ca2+ entry (STIM1/Orai1 CRAC channel): inhibit
IC50 (STIM1/Orai1 CRAC channel; read-out: IC50 (inhibition of calcium inflow)): 1.9 µM
Compound: O=C(Nc1scc(-c2ccc(Br)cc2)c1C(=O)O)c1cccc(F)c1 [Cmpd B]

effect on enhanced Ca2+ currents ([3]; 50 nM): blocked
Compound: [Gd+3] [Gd^3+]

CRAC-channel mediated Ca2+ entry (STIM1/Orai1 CRAC channel): inhibit
Compound: O=C(Nc1scc(-c2ccc(Br)cc2)c1C(=O)O)c1ccc(F)cc1 [compound A]
